# Assay results taken from PubChem BioAssay (NCI).
#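 Growth conditions: 96-well plates. Treatment: test compound, 48 hours, 5 concentrations. Analysis: linear interpolation between bracketing concentrations; unreached endpoints set to highest concentration. Definition used: TGI = concentration required for complete inhibition of growth.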
# Columns and labels:
# Test in all cases: NCI tumour cell line growth inhibition, 48 h
# DLD-1 colon = test system: DLD-1 colon
# DMS 273 small cell lung = test system: DMS 273 small cell lung
# HOP-18 NSCLC = test system: HOP-18 NSCLC
# P388 leukemia = test system: P388 leukemia
# P388/ADR leukemia = test system: P388/ADR leukemia
# SN12K1 renal = test system: SN12K1 renal
# SNB-78 CNS = test system: SNB-78 CNS
# RXF-631 renal = test system: RXF-631 renal
Structure (SMILES),TGI (DLD-1 colon) [µM],TGI (DMS 273 small cell lung) [µM],TGI (HOP-18 NSCLC) [µM],TGI (P388 leukemia) [µM],TGI (P388/ADR leukemia) [µM],TGI (SN12K1 renal) [µM],TGI (SNB-78 CNS) [µM],TGI (RXF-631 renal) [µM]
Nc1nncs1,> 5000,> 5000,> 5000,2670,2820,> 5000,> 4420,
O=C(O)CNCc1c2ccccc2[n+]([O-])c2ccccc12,> 100,> 100,> 100,,,,> 100,> 100
CSc1sc(=S)sc1SC,> 100,> 100,> 100,> 100,> 100,> 100,> 100,
NC(=O)c1cc(C2OC(CO)C(O)C2O)nn1-c1ccc([N+](=O)[O-])cc1 (stereo not given),> 100,> 100,> 100,,,,> 100,
O=C(O)C(Br)Cc1ccc2c(c1)OCO2 (stereo not given),> 100,,,,,,> 100,
